In PubChem BioAssay AID1963846 (Molecular Pharmacology Branch, DTP, NCI, 2024):

System: 454973-116-R2-J3-PDC complex spheroid viability
Assay: Anticancer human tumor 454973-116-R2-J3-PDC patient-derived pancreatic carcinoma cell line growth inhibition [POLQ]
Conditions: for IC50: curve of first compound; for viability, T/C: stronger effect = lower value; active = viability on the fitted dose curve at most 10% of control; inactive = the rest
How it was run: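 Complex spheroid viability model combining PDC tumour cells with endothelial (HUVEC) and MSC stromal cells. Novobiocin, ART-558 or RP6685 were tested singly and in combination with standard and investigational anticancer drugs. Each was titrated in half-log steps from near clinical Cmax, or from 10 microM where Cmax was unknown.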

[1] = second compound 0.0316 µM, first compound 0.0316 µM
[2] = second compound 0.0316 µM, first compound 0.1 µM
[3] = second compound 0.0316 µM, first compound 0.316 µM
[4] = second compound 0.0316 µM, first compound 1 µM
[5] = second compound 0.0316 µM, first compound 3.16 µM
[6] = second compound 0.0316 µM, first compound 10 µM
[7] = second compound 0.1 µM, first compound 0.0316 µM
[8] = second compound 0.1 µM, first compound 0.1 µM
[9] = second compound 0.1 µM, first compound 0.316 µM
[10] = second compound 0.1 µM, first compound 1 µM
[11] = second compound 0.1 µM, first compound 3.16 µM
[12] = second compound 0.1 µM, first compound 10 µM
[13] = second compound 0.316 µM, first compound 0.0316 µM
[14] = second compound 0.316 µM, first compound 0.1 µM
[15] = second compound 0.316 µM, first compound 0.316 µM
[16] = second compound 0.316 µM, first compound 1 µM
[17] = second compound 0.316 µM, first compound 3.16 µM
[18] = second compound 0.316 µM, first compound 10 µM
[19] = second compound 1 µM, first compound 0.0316 µM
[20] = second compound 1 µM, first compound 0.1 µM
[21] = second compound 1 µM, first compound 0.316 µM
[22] = second compound 1 µM, first compound 1 µM
[23] = second compound 1 µM, first compound 3.16 µM
[24] = second compound 1 µM, first compound 10 µM
[25] = second compound 3.16 µM, first compound 0.0316 µM
[26] = second compound 3.16 µM, first compound 0.1 µM
[27] = second compound 3.16 µM, first compound 0.316 µM
[28] = second compound 3.16 µM, first compound 1 µM
[29] = second compound 3.16 µM, first compound 3.16 µM
[30] = second compound 3.16 µM, first compound 10 µM
[31] = second compound 10 µM, first compound 0.0316 µM
[32] = second compound 10 µM, first compound 0.1 µM
[33] = second compound 10 µM, first compound 0.316 µM
[34] = second compound 10 µM, first compound 1 µM
[35] = second compound 10 µM, first compound 3.16 µM
[36] = second compound 10 µM, first compound 10 µM
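Also: spheroids exposed to drugs for seven days before measurement.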
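For viability, T/C in this document: percent viability relative to DMSO vehicle control wells taken as 100%.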

Nc1ccn(C2OC(CO)C(O)C2(F)F)c(=O)n1 (centres undefined) + COC1C(OC(N)=O)C(O)C(Oc2ccc3c(O)c(NC(=O)c4ccc(O)c(CC=C(C)C)c4)c(=O)oc3c2C)OC1(C)C
< 0.0316 µM: IC50 (second compound 0.0316 µM) | IC50 (second compound 0.1 µM) | IC50 (second compound 0.316 µM) | IC50 (second compound 1 µM) | IC50 (second compound 3.16 µM) | IC50 (second compound 10 µM)
inactive: viability, T/C [1] 14.4% | viability, T/C [2] 8.27% | viability, T/C [3] 11.6% | viability, T/C [4] 11.3% | viability, T/C [5] 11.7% | viability, T/C [6] 12.9% | viability, T/C [7] 12.6% | viability, T/C [8] 11.2% | viability, T/C [9] 10.2% | viability, T/C [10] 11.4% | viability, T/C [11] 11.2% | viability, T/C [12] 10.5% | viability, T/C [13] 10.3% | viability, T/C [14] 9.75% | viability, T/C [15] 10.9% | viability, T/C [16] 11% | viability, T/C [17] 15.1% | viability, T/C [18] 10.2% | viability, T/C [19] 12% | viability, T/C [20] 11.9% | viability, T/C [21] 13.1% | viability, T/C [22] 13.4% | viability, T/C [23] 11.2% | viability, T/C [24] 14.5% | viability, T/C [25] 12.2% | viability, T/C [26] 15.2% | viability, T/C [27] 11.4% | viability, T/C [28] 10.9% | viability, T/C [29] 11% | viability, T/C [30] 11.1% | viability, T/C [31] 13.2% | viability, T/C [32] 10.8% | viability, T/C [33] 12.5% | viability, T/C [34] 12.4% | viability, T/C [35] 11.9% | viability, T/C [36] 12%

O=C(c1cc(Cc2n[nH]c(=O)c3ccccc23)ccc1F)N1CCN(C(=O)C2CC2)CC1 + COC1C(OC(N)=O)C(O)C(Oc2ccc3c(O)c(NC(=O)c4ccc(O)c(CC=C(C)C)c4)c(=O)oc3c2C)OC1(C)C
inactive: viability, T/C [1] 103% | viability, T/C [2] 105% | viability, T/C [3] 96.9% | viability, T/C [4] 116% | viability, T/C [5] 93.7% | viability, T/C [6] 61.6% | viability, T/C [7] 106% | viability, T/C [8] 113% | viability, T/C [9] 106% | viability, T/C [10] 116% | viability, T/C [11] 94.6% | viability, T/C [12] 63.2% | viability, T/C [13] 110% | viability, T/C [14] 107% | viability, T/C [15] 99.4% | viability, T/C [16] 113% | viability, T/C [17] 98.3% | viability, T/C [18] 69.7% | viability, T/C [19] 121% | viability, T/C [20] 104% | viability, T/C [21] 104% | viability, T/C [22] 105% | viability, T/C [23] 97.5% | viability, T/C [24] 63.3% | viability, T/C [25] 115% | viability, T/C [26] 104% | viability, T/C [27] 109% | viability, T/C [28] 103% | viability, T/C [29] 94.7% | viability, T/C [30] 64.2% | viability, T/C [31] 106% | viability, T/C [32] 94% | viability, T/C [33] 95.6% | viability, T/C [34] 107% | viability, T/C [35] 99.2% | viability, T/C [36] 59.4%
> 10 µM: IC50 (second compound 0.0316 µM) | IC50 (second compound 0.1 µM) | IC50 (second compound 0.316 µM) | IC50 (second compound 1 µM) | IC50 (second compound 3.16 µM) | IC50 (second compound 10 µM)
